Data: US8470983B2, “L-sugar colon cleansing agent and uses thereof” (Aptalis Pharma Canada Inc., priority 2009, dated 2013)

What was measured:
[1] = Dissolution of L-glucose monohydrate versus anhydrous L-glucose in water with consumer-like stirring; type: physicochemical; conditions: for Time of stirring until sample fully dissolved: 53 g L-glucose monohydrate in 240 mL doubly distilled water; for Observation of undissolved solid / clumping / Appearance of final solution: 240 mL water
Experimental: The following describes methods for determining the increased dissolution rate of L-glucose monohydrate comprising compositions.
Each sample comprises approximately an equivalent amount of L-glucose on a weight basis. Carefully, to avoid agitation and mixing, doubly distilled water (240 mL) is added to each beaker. In one example, the solution is stirred immediately after addition of water. In a second example, the solutions are allowed to stand for 5 minutes before agitation. The stiffing was conducted in a manner duplicating the way a consumer is expected to stir a sample prior to use. The following Table summaries these experiments which were conducted in duplicate.

[2] = set-up: species or system mice, rats, dogs, rabbits, and monkeys; conditions: in vivo
Experimental: (§1) In preclinical studies, there was no metabolism of L-glucose in any mammalian species studied. […] The maximum tolerated dose in rats was determined to be 10% dietary level of L-glucose.

[3] = 90-day dietary study of L-glucose; type: in vivo
Experimental: as §1

[4] = Clinical studies of L-glucose absorption, elimination and tolerability; type: in vivo, human
[5] = Comparative Example 1: multicenter, double-blind, dose-range-finding study of L-glucose as colon-cleansing agent before colonoscopy; type: in vivo, human; conditions: single doses 12 g, 16 g, 20 g, 24 g
Experimental: A multicenter, double-blind, dose-range-finding study to evaluate the effectiveness and safety of L-glucose as a colon-cleansing agent before colonoscopy was conducted. Doses used in this study were 12 g, 16 g, 20 g, and 24 g. The assessment of the preparations was based on the scale used in Hsu et al., “Meta-analysis and cost comparison of polyethylene glycol lavage versus sodium phosphate for colonoscopy preparation,” Gastrointestinal Endoscopy 48(3):276-282, 1998, wherein small bits of fecal material in the colon were allowed in an “Excellent” score.

[6] = Comparative Example 2: randomized, single-blind study of L-glucose as bowel preparation before colonoscopy (GPA scale); type: in vivo, human
Experimental: (§2) Global Preparation Assessment
(§3) Excellent=clean colon or small volume of clear liquid
(§4) Good=moderate to large volume of clear to semiclear liquid
(§5) Fair=some semisolid stool suctioned or washed away
(§6) Poor=semisolid or solid stool unable to be suctioned or washed away
A randomized, single-blind study designed to determine the clinical effectiveness of L-glucose as a bowel preparation before colonoscopy was performed. Three dose regimens were evaluated: 24 g in the evening only, 30 g in the evening only, and 24 g in the evening followed by 12 g in the morning (36 g total). Here, Applicant's GPA scale described herein was used to evaluate the preparations. […] Clinical efficacy (defined as a combination of “excellent” and “good” assessments) for the split-dose schedule was 19/27 (70%), as compared to 7/31 (23%) in the single-dose schedule (p<0.001).
As noted above in the description of Applicant's GPA scale, the criteria for determining whether a preparation was deemed “excellent” or “good” was respectively defined as “clean colon or small volume of clear liquid” or “moderate to large volume of clear to semi-clear liquid.” These criteria are more stringent than the rating system used by Raymer et al. discussed supra since Raymer's “excellent” and “good” ratings were respectively defined as “no more than small bits of adherent fecal fluid” and “small amounts of feces or fluid not interfering with the examination.” Thus, Raymer's “excellent” rating would likely not qualify as even a “good” rating in Applicant's GPA scale.

[7] = Example 3: open-label, 2-site dose-escalating split-dose study of L-glucose before colonoscopy (GPA and RSS); type: in vivo, human
Excerpt: Applicants have relied upon a combination of a categorical, 4-point scale and a numerical, segmental scoring system to assess bowel cleansing quality (Balaban et al. “Low volume bowel preparation for colonoscopy: randomized, endoscopist-blinded trial of liquid sodium phosphate versus tablet sodium phosphate,” Am J Gastroenterol 98:827-32, 2003). The basic 4-point scale, known as the Global Preparation Assessment (GPA), is essentially the same as the original scale used in the first randomized controlled trial of PHOSPHO-SODA™ as a bowel cleansing agent published in 1990 by Vanner, et al. (“A randomized prospective trial comparing oral sodium phosphate with standard polyethylene glycol-based lavage solution (Golytely) in the preparation of patients for colonoscopy,” Am J Gastroenterol 85:422-7, 1990). The numerical scoring system, known as the Residual Stool Score (RSS), is a continuously variable, averaged segmental scoring instrument that assesses both the amount and consistency of residual stool before suctioning (a measure of the cathartic activity of the bowel cleansing regimen) as well as the percent of the bowel wall seen after washing and cleansing (a measure of the ultimate endpoint for bowel preparation success). The two scales are shown below.
as §2, §3, §4, §5, §6
This open-label, 2-site study employed a dose-escalating design using 3 split doses of L-glucose (24 g/24 g, 36 g/36 g, and 48 g/48 g). The doses were administered the night before and the morning of a scheduled colonoscopy. The study was conducted in Phase I facilities to control for administration of L-glucose and adherence to the dietary and hydration regimen.
Three dose cohorts of 24 subjects were evenly divided between males and females for each cohort. Subjects who were scheduled to undergo an elective colonoscopy, who met the study entrance criteria, and who gave their consent to participate in the study were enrolled. […] Each subject observed a strict diet and hydration regimen as part of the study medication administration.
The site pharmacist prepared the L-glucose preparation based on the study medication preparation manual provided. Each subject, regardless of dose cohort, received the dose in 8 ounces of water, which was to be consumed within a 10-minute period. Dose cohorts proceeded in a dose-escalating fashion starting with the lowest dose (24 g/24 g) and escalated according to a dose escalation decision tree.
The physician performing the colonoscopy utilized Applicant's GPA scale to evaluate the quality of bowel preparation as before suctioning and washing.
The Residual Stool Score (RSS) described above was also used to assess bowel cleansing in each of the 5 segments of the bowel (rectum, descending colon, transverse colon, ascending colon, and cecum). As noted, assessments included the amount of stool present, the consistency of the stool, and the estimated percentage of the bowel wall visualized in each segment.
For reasons of inadequate bowel preparation, sections of the bowel that were not directly examined during colonoscopy were rated as “poor” on all three measures listed previously.
A total of 24 subjects were enrolled into each of the three dose cohorts. All 72 subjects were included in the intent-to-treat (ITT) and safety populations.

[8] = 24-g single dose; Raymer scale; cited from earlier work
[9] = 5 min. delay before stirring, listed as L- glucose monohydrate^2, monohydrate
[10] = no delay before stirring, listed as L- glucose monohydrate^2, monohydrate
[11] = 24 g, 30 g, 24 g + 12 g regimens
[12] = Total of all three dose cohorts, ITT, N = 72

## O.O=C[C@@H](O)[C@H](O)[C@@H](O)[C@@H](O)CO [L-glucose monohydrate]
[1]; 5 min. delay before stirring, listed as L- glucose monohydrate^1, monohydrate
  Time of stirring until sample fully dissolved: Sample fully dissolved after 2.5 min. of stirring.
[1]; [9]
  Time of stirring until sample fully dissolved: Fully dissolved after 1 min. of stirring. Final
  Appearance of final solution: solution was clear, colorless and homogeneous
[1]; no delay before stirring, listed as L- glucose monohydrate^1, monohydrate
  Time of stirring until sample fully dissolved: Sample fully dissolved after 2.5 min. of stirring.
[1]; [10]
  Time of stirring until sample fully dissolved: Fully dissolved after 2 min. of stirring. Final
  Appearance of final solution: solution was clear, colorless and homogeneous
[1]; 5 min. delay before stirring
  Observation of undissolved solid / clumping: Several clusters of solid at 1 min. Final solution
[1]; no delay before stirring
  Observation of undissolved solid / clumping: Several clusters of solid at 1 min. Final solution

## O=C[C@@H](O)[C@H](O)[C@@H](O)[C@@H](O)CO [L-glucose]
[2]
  Effect of food restriction on metabolism: no significant effect
  Major route of elimination: urinary excretion
  Metabolism of L-glucose: no metabolism
[3]; rat, in vivo
  Toxicity from continuous administration: no overt evidence of toxicity
[3]; rats
  Maximum tolerated dose: 10 % dietary level
[4]; breath hydrogen in humans, comparable with in vitro studies
  Metabolism by colonic bacteria: colonic bacteria do not metabolize L-glucose
[4]; human, in vivo
  Absorption from the intestine: moderately absorbed
  Glucose or insulin response after administration: No significant glucose or insulin response
  Lower gastrointestinal symptoms (cramping, gas/flatus): occurred in a majority of subjects, but symptoms were mild
  Major routes of elimination: fecal and urinary excretion
  Mild upper gastrointestinal symptoms (vomiting, nausea, belching/rifting, bloating): occurred in a minority of subjects
[5]
  Acceptability as a colonic cleanser: not acceptable
[6]; 24 g and 30 g evening-only doses
  Outcome of evening-only dose arms: suspended for lack of effectiveness
[6]; [11]
  Changes in laboratory test results: no clinically significant changes
  Commonly reported adverse events: generally absent or mild
  Overall tolerance to the bowel preparation: good or very good
[6]; single-dose schedule (24 g or 30 g evening only), 7/31 subjects
  Clinical efficacy (combination of excellent and good GPA assessments): 23%
[6]; split-dose schedule: 24 g evening followed by 12 g morning, 19/27 subjects
  Clinical efficacy (combination of excellent and good GPA assessments): 70%
[7]; 24 g/24 g cohort, ITT, n = 24
  Global Preparation Assessment, Max: 4.00
  Global Preparation Assessment, Mean (SD): 3.29 (0.81)
  Global Preparation Assessment, Median: 3.50
  Global Preparation Assessment, Min: 2.00
  Subjects with GPA Fair, number (percentage): 5 (20.8)
  Subjects with GPA Good, number (percentage): 7 (29.2)
  Subjects with GPA Poor, number (percentage): 0 (0.0)
[7]; 36 g/36 g cohort, ITT, n = 24
  Global Preparation Assessment, Max: 4.00
  Global Preparation Assessment, Median: 4.00
  Global Preparation Assessment, Min: 1.00
  Subjects with GPA Fair, number (percentage): 2 (8.3)
  Subjects with GPA Good, number (percentage): 7 (29.2)
[7]; 48 g/48 g cohort, ITT, n = 24
  Global Preparation Assessment, Max: 4.00
  Global Preparation Assessment, Median: 4.00
  Global Preparation Assessment, Min: 2.00
  Subjects with GPA Fair, number (percentage): 1 (4.2)
  Subjects with GPA Good, number (percentage): 1 (4.2)
  Subjects with GPA Poor, number (percentage): 0 (0.0)
[7]; 48 g/48 g dose
  Efficacy compared among the three split doses: greatest efficacy
  Time to the first watery bowel movement, compared among doses: shortest time to the first watery bowel movement
[7]; Site 01, all dose cohorts
  GPA, mean (SD): 3.68 (0.75)
  Subjects who had a complete colonoscopy, number (percentage): 30 (96.8%)
  Subjects with GPA rated poor, number (percentage): 1 (3.2%)
[7]; Site 01, all dose cohorts, 25 subjects
  Subjects with GPA rated excellent: 80.7%
[7]; Site 02, all dose cohorts
  GPA, mean (SD): 3.41 (0.74)
  Subjects who had a complete colonoscopy, number (percentage): 39 (95.1%)
[7]; Site 02, all dose cohorts, 23 subjects
  Subjects with GPA rated excellent: 56.1%
[7]; [12]
  Global Preparation Assessment, Max: 4.00
  Global Preparation Assessment, Mean (SD): 3.53 (0.75)^
  Global Preparation Assessment, Median: 4.00
  Global Preparation Assessment, Min: 1.00
  Subjects with GPA Excellent, number (percentage): 48 (66.7)
  Subjects with GPA Fair, number (percentage): 8 (11.1)
  Subjects with GPA Good, number (percentage): 15 (20.8)
  Subjects with GPA Poor, number (percentage): 1 (1.4)
[7]; in each dose cohort (24 g/24 g, 36 g/36 g, 48 g/48 g)
  Subjects who had a complete colonoscopy (to the level of the cecum), number (percentage): 23 (95.8%)
[8]
  Subjects with colonoscopy preparation grade of excellent or good: 80%
